What was measured:
Musca domestica [1] = experiment: Topical activity against Musca domestica, compound alone (24 hours, LC50, relative to Resmethrin); assay type: in vivo; details: Musca domestica 3-day old adult females, without synergist, from LC50
Description: (§1) The insecticidal activities of the compounds of the Examples has been shown by the following tests in four species of insects, namely Aedes aegypti, Musca domestica, Blattella germanica, and Tribolium castaneum.
(§2) (i) A 1 μl drop of a solution of test compound in AR acetone (high purity acetone) was applied to the dorsal thorax of 3-day old adult females. Knockdown was recorded after 24 hours. Solutions of different concentration were tested from which the concentration of solution and therefore the amount of compound which gives 50% kill (LC50) was determined.
(§3) The results are all expressed as activities relative to the activity of Resmathrin (assigned activity=100), determined by the methods described. [formula]

Tribolium castaneum = experiment: Topical activity against Tribolium castaneum (knockdown after 48 hours, LD50, relative to Resmethrin); assay type: in vivo; details: Tribolium castaneum adults, from LD50
Description: as §1
A 1 μl drop of a solution of test compound in AR acetone was applied topically to adult insects. Knockdown was recorded after 48 hours. Solutions of different concentrations were tested from which the concentration of solution which gives 50% knockdown (LD50) was determined.
as §3

Plutella xylostella = experiment: Knockdown of Plutella xylostella (cabbage leaf dip test); assay type: in vivo; details: foliar, Plutella xylostella 3rd instar larvae, knockdown after 24 hours, read-out: Plutella % KD at 25.0 ppm
From the text: (§4) The activities of some of the compounds of the Examples has been shown in the following tests in three species of phytophagous arthropods, namely Megoura vicae, Plutella xylostella, Tetranychus cinnabarinus.
(§5) Aqueous suspensions of test compound were made by adding a solution of test compound in AR acetone to a solution of TWEEN 80 (200 p.p.m.) in water.
A 9.0 cm square of cabbage leaf was dipped for 4 seconds in the aqueous suspension of the test compound, and allowed to dry. The leaf was placed on filter paper in a Petri dish (9.0 cm). Five 3rd instar larvae were placed on the leaf, and the dish was placed in a polythene bag containing a wet cotton-wool pad. Knockdown was recorded after 24 hours.

[2] = Photostability of a deposit exposed to a light source; assay type: physicochemical; details: times greater than Resmethrin
From the text: Photostability is an important feature when the insecticide is applied to foliage. […] A deposit of selected Examples and Resmethrin was exposed to a light source and tested at increasing time intervals.

Megoura vicae = experiment: Knockdown of Megoura vicae (dip test); assay type: in vivo; details: Megoura vicae adults, knockdown after 24 hours
From the text: as §4, §5
Adult insects were dipped individually for 4 seconds in the aqueous suspension of test compound and then placed on a filter paper in a Petri dish (9.0 cm diameter) with a p.t.f.e. rim. A 5.0 cm long piece of broad bean stem was added and the lid was put on. Knockdown was recorded after 24 hours.

Blattella germanica = experiment: Topical activity against Blattella germanica (24 hours, LC50, relative to Resmethrin); assay type: in vivo; details: Blattella germanica 1-4 week old adult males, from LC50
Description: as §1
A 2 μl drop of a solution of the test compound in AR acetone was applied between the rear coxae of 1-4 week old adult males. Knockdown was recorded after 24 hours. Solutions of different concentration were tested from which the concentration of solution which gives 50% kill (LC50) was determined.
as §3

Tetranychus cinnabarinus = experiment: Activity against Tetranychus cinnabarinus (dwarf French bean leaf dip test); assay type: in vivo; details: foliar, Tetranychus cinnabarinus adult mites, 48 hours, read-out: Tetranychus % KD at 500.0 ppm
From the text: as §4, §5
The two primary leaves of dwarf French beans were reduced to 2.5 cm squares, and they were infested with ca. 20 adult mites. The leaves were then dipped for 4 seconds in the aqueous suspension of the test compound and allowed to dry. Adult mortality was recorded after 48 hours.

Musca domestica [3] = experiment: Topical activity against Musca domestica with synergist piperonyl butoxide (24 hours, LC50, relative to Resmethrin); assay type: in vivo; details: Musca domestica 3-day old adult females, with 0.5% w/v piperonyl butoxide, from LC50
Description: as §1, §2
(ii) Similar tests were carried out with the amendment that to each test solution, 0.5% w/v of commercial insecticide synergist, piperonyl butoxide, was added.
as §3

Aedes aegypti = experiment: Larvicidal activity against Aedes aegypti (kill after 24 hours, LC50, relative to Resmethrin); assay type: in vivo; details: Aedes aegypti 3 day old larvae, from LC50
Description: as §1
A 0.2 cm^3 sample of a solution of test compound in AR acetone was applied to water (200 cm^3) containing 20 (3 day old) larvae. Kill was recorded after 24 hours. Solutions of different concentration were tested from which the concentration of solution which gives 50% kill (LC50) was determined.
as §3

insects = details: about times that of natural pyrethrum; cited from earlier work
[4] = system: lettuce, cucumber, dwarf French beans, tomato or broad bean; experiment: Phytotoxicity on foliage; assay type: in vivo; details: 100 p.p.m. on foliage
From the text: Phytotoxicity is an important feature when the insecticide is applied to foliage.

Compound	Activity Relative to Resmethrin = 100, Musca Alone (Musca domestica [1])	Activity Relative to Resmethrin = 100, Tribolium (Tribolium castaneum)	mortality at 25 ppm (Plutella xylostella) [%]	photostability half-life relative to Resmethrin [2] [times]	Megoura % KD at 1.0 ppm (Megoura vicae) [%]	Activity Relative to Resmethrin = 100, Blattella (Blattella germanica)	mortality at 500 ppm (Tetranychus cinnabarinus) [%]	Activity Relative to Resmethrin = 100, Musca with Synergist (Musca domestica [3])	Activity Relative to Resmethrin = 100, Aedes (Aedes aegypti)	activity relative to natural pyrethrum (insects)	phytotoxicity [4]
CC(C)C(C(=O)OC(C#N)c1cccc(Oc2ccccc2)c1)c1ccc2ccoc2c1 (stereo not drawn) [Example 2, α-Cyano-m-phenoxybenzyl α-isopropylbenzofuran-6-acetate]	123	583	97.5	17.5	97.5	459	83.7	606	286	–	–
CC(C)C(C(=O)OC(C#N)c1cccc(Oc2ccccc2)c1)c1ccc2sccc2c1 (stereo not drawn) [Example 4, α-Cyano-m-phenoxybenzyl α-isopropylbenzo(b)thiophene-5-acetate]	16	–	–	21.5	–	62	–	400	105	–	–
CC(C)=CC1C(C(=O)OCc2coc(Cc3ccccc3)c2)C1(C)C (stereo not shown) [Resmethrin, 5-benzyl-3-furylmethylchrysanthemumate]	–	–	–	–	–	–	–	–	–	about 20 times	–
CC(C)C(C(=O)OC(C#N)c1cccc(Oc2ccccc2)c1)c1ccc(Cl)cc1 (stereo not drawn) [fenvalerate, α-cyano-3-phenoxy-benzyl 2-(4-chlorophenyl)-3-methylbutyrate]	–	–	–	–	–	–	–	–	–	–	phytotoxicity was observed

Source: patent publication US4372970A, “Benzofuran acetic acid esters and their arthropocidal compositions” (Shell Internationale Research Maatschappij B.V., priority 1979, dated 1983)
